According to US8476449B2, “Radioactive iodine labeled organic compound or salt thereof” (Nihon Medi-Physics Co., Ltd., priority 2010, dated 2013):

Experiments:
tau protein aggregate [1] = biological target: T1, tau protein aggregate (Homo sapiens, UniProt P10636); test: Inhibition constant toward tau protein aggregate (thioflavin S competition); type: binding; parameters: made in house; host or cells: E. coli BL21
Method: (§1) First, the dissociation constant (Kd) of thioflavin S used as a competitive ligand was first determined by a saturation experiment in order to calculate inhibition constants of compounds 1 to 3. That is, a mixed solution of a 10 vol % ethanol aqueous solution of thioflavin S (0.1-12.8 μmol/L) and the tau protein aggregate (final concentration 0.2 μmol/L, prepared in Example 9) or the Aβ42 aggregate (final concentration 2.2 μmol/L, prepared in Example 11) was incubated for 30 minutes, and the fluorescence intensity was measured using a fluorescence plate reader (FLEX STATION, Molecular Devices). The fluorescence intensity was measured at Ex 440 nm and Em 510 nm for the tau protein aggregate and Ex 440 nm and Em 490 nm for the Aβ42 aggregate. A saturation curve was prepared using GraphPad Prism, and the Kd value for thioflavin S was calculated.
(§2) Next, a mixed solution of a 10 volt ethanol aqueous solution of thioflavin S (1.5 μmol/L) and a test compound (0.6 nmol/L to 10 μmol/L) together with the tau protein aggregate (final concentration 0.2 μmol/L, prepared in Example 9) or the Aβ42 aggregate (final concentration 10 μg/ml, prepared in Example 11) was incubated for 30 minutes. Then, the fluorescence intensities at Ex 440 nm and Em 510 nm for the tau protein aggregate and Ex 440 nm and Em 490 nm for the Aβ42 aggregate were measured using a fluorescence plate reader (FLEX STATION, Molecular Devices). GraphPad Prism inhibition curves were prepared, and Ki values of compounds 1 to 3 were determined using the above obtained Kd value of thioflavin S.

tau protein aggregate [2] = biological target: T1, tau protein aggregate; test: Competitive inhibition experiment using thioflavin S (ThS) as ligand, fluorescence spectra; type: binding; parameters: made in house; host or cells: E. coli BL21; settings: tau protein aggregate 0.2 μmol/L, thioflavin S 1.5 μmol/L, compound 0.1-2.7 μmol/L, excitation 440 nm
Method: Tau-441 expression vector (provided by Graduate School of Medicine, Osaka City University) was transferred to E. coli (BL21), culturing was carried out, and a tau protein was extracted and purified. Heparin (0.1 mg/mL) was added to the purified tau protein (1 mg/mL), and incubation in a 50 mmol/L MES buffer (pH 6.8, 100 mmol/L sodium chloride, 0.5 mmol/L EGTA) at 37° C. was carried out for 3 days, thus preparing an aggregate. Formation of the tau protein aggregate was confirmed by SDS-PAGE and thioflavin S fluorescence assay.
A mixed solution (550 μL) of the tau protein aggregate (final concentration […]) thus prepared, thioflavin S (Sigma Aldrich, final concentration 1.5 μmol/L), and compound 1, compound 2, or compound 3 solution at various concentrations (each having final concentrations of 0 to 2.7 μmol/L) was incubated for 30 minutes, and fluorescence spectra at an excitation wavelength of 440 nm were measured using a fluorescence spectrometer (RF-5300PC, Shimadzu Corporation).
In FIGS. 3 to 5, a is a fluorescence spectrum of a sample (sample I) containing only thioflavin S at 1.5 μmol/L, and b is a fluorescence spectrum of a sample (sample II) that is 0.2 μmol/L of the tau protein aggregate in sample I. In FIG. 3, c is a fluorescence spectrum of a sample that is 0.1 μmol/L of compound 1 in sample II, d is a fluorescence spectrum of a sample that is 0.3 μmol/L of compound 1 in sample II, e is a fluorescence spectrum of a sample that is 0.9 μmol/L of compound 1 in sample II, and f is a fluorescence spectrum of a sample that is 2.7 μmol/L of compound 1 in sample II. In FIG. 4, c is a fluorescence spectrum of a sample that is 0.1 μmol/L of compound 2 in sample II, d is a fluorescence spectrum of a sample that is 0.3 μmol/L of compound 2 in sample II, e is a fluorescence spectrum of a sample that is 0.9 μmol/L of compound 2 in sample II, and f is a fluorescence spectrum of a sample that is 2.7 μmol/L of compound 2 in sample II. […]

Aβ42 aggregate = biological target: T2, Aβ42 aggregate (Homo sapiens, UniProt P05067); test: Inhibition constant toward Aβ42 aggregate (thioflavin S competition); type: binding; settings: thioflavin S as ligand, read-out: Ki values (Aβ42 in Table 5)
T2 construct: Aβ (1-42) peptide; purchased Peptide Institute, Inc
Method: as §1, §2

[3] = test system: human brain neurofibrillary tangles; test: Fluorescent staining of Alzheimer's disease patient brain slice (binding to human brain neurofibrillary tangles); settings: 200 μmol/L, 1 hour
Method: A fluorescent staining experiment with compound 3 using an Alzheimer's disease patient brain slice was carried out in order to evaluate binding to human brain neurofibrillary tangles. A postmortem brain slice (paraffin-embedded slice) of an Alzheimer's disease patient purchased from BioChain was washed with xylene (5 minutes×twice), ethanol, ethanol, a 95 vol % ethanol aqueous solution, an 85 volt ethanol aqueous solution, and a 70 vol % ethanol aqueous solution (1 minute×once) to thus carry out deparaffinization. Subsequently, it was treated in sequence with a 0.3 wt % potassium permanganate aqueous solution (20 minutes×once), PBS (phosphoric acid buffer physiological saline) (2 minutes×twice), a 1 wt % potassium metabisulfite aqueous solution/1 wt % oxalic acid aqueous solution (1 minute×once), PBS (2 minutes×twice), a 1 wt % sodium borohydride aqueous solution (5 minutes×once), and PBS (2 minutes×twice) in order to remove self-fluorescence of the slice. Blocking using 3 wt % BSA-containing PBS/0.1 wt % tritonX100-containing PBS was carried out for 3 hours. Then, a test compound (200 μmol/L/50 vol % ethanol aqueous solution) and the slice were incubated for 1 hour. The slice was washed with 50 vol % ethanol, and examined using a fluorescence microscope. Furthermore, the same slice was stained using thioflavin S (0.125 wt %, 50 vol % ethanol aqueous solution) for 10 minutes. […]

T1 sequence (P10636 1-441 isoform P10636-8): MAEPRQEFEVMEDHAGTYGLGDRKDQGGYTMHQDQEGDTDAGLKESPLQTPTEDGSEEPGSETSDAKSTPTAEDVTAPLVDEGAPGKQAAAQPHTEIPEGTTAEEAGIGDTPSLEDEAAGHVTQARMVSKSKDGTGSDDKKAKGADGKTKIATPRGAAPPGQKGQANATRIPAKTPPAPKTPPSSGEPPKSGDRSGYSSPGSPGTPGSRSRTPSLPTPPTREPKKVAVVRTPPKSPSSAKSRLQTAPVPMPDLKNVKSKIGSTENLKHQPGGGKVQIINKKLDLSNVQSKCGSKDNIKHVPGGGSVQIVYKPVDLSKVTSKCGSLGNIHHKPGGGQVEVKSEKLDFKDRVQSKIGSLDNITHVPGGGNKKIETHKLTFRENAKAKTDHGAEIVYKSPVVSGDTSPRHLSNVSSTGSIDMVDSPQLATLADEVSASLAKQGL
T2 sequence (P05067 672-713 limits assumed): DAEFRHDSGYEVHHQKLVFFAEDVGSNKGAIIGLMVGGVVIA

SMILES: O=C1/C(=C/c2ccc(-c3cccc(I)c3)o2)NC(=S)N1CCc1c[nH]cn1 [Compound 3, (Z)-3-(2-(1H-imidazol-4-yl)ethyl)-5-((5-(3-iodophenyl)furan-2-yl)methylene)-2-thioxoimidazolidin-4-one]
- Ki ratios of Aβ42/Tau (tau protein aggregate [1]; ratio of Ki Aβ42 aggregate to Ki tau protein aggregate): 7.33
- Ki (tau protein aggregate [1]; thioflavin S as ligand, tau protein aggregate, read-out: Ki values (Tau in Table 5)): 64 nM
- Inhibition of binding of tau protein aggregate to thioflavin S (fluorescence spectra) (tau protein aggregate [2]): inhibition of binding of a tau protein aggregate to thioflavin S
- Ki (Aβ42 aggregate): 469 nM
- Fluorescent staining of brain slice vs AT8 immunostaining [3]: Prominent fluorescence accumulation
